Data from paper PMC12571071, “Preventing neuropathy and improving anticancer chemotherapy with a carbazole-based compound” (Science Advances, 2025).

Tests used:
HeLa cells = tested on: HeLa cells; design: method as in PMID 32781579; conditions: dividing cells, 72-hour treatment; read-out: GI50 (50% of growth inhibition); cited from earlier work
NAMPT = NAMPT (Homo sapiens, UniProt P43490); assay: NAMPT activity assay (coupled recombinant enzyme kit); assay type: biochemical; design: purchased Abcam ab221819; conditions: OD450 at 60 min, normalized by subtraction of DMSO value
Sequence of NAMPT (P43490 whole entry): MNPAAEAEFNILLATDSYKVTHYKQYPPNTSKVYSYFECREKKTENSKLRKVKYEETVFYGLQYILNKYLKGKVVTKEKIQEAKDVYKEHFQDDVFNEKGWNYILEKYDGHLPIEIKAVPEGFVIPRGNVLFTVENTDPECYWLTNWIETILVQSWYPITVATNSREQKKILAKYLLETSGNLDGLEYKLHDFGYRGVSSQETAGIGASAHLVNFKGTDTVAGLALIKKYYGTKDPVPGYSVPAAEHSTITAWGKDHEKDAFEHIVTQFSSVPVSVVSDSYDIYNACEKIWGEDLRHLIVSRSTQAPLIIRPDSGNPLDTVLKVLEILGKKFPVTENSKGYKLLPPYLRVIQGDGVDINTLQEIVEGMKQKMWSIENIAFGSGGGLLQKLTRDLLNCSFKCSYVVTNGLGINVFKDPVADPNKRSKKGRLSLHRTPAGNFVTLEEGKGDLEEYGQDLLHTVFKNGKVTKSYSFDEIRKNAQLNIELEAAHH
Text: We next tested whether Carba1 could activate NAMPT in vitro. To that aim, we used a commercial recombinant human enzyme assay containing four enzymes: NAMPT, NAM nucleotide adenylyltransferase 1 (NMNAT1), alcohol dehydrogenase (ADH), and diaphorase (see Materials and Methods). In the presence of NAM and 5-phosphoribosyl-1-pyrophosphate (PRPP), NAMPT converts NAM to NMN, which is then converted into NAD^+ by NMNAT1, while ADH converts NAD^+ to NADH. Then, into a coupled-reaction, diaphorase converts NADH into NAD^+ and tetrazolium salt WST-1 {4-[3-(4-iodophenyl)-2-(4-nitro-phenyl)-2H-5-tetrazolio]-1,3-benzene sulfonate} to formazan, which can be detected at optical density at 450 nm (OD450). In practice, we proceeded in two steps. First, Carba1 and the different tested compounds were incubated for 15 min with NAMPT, NMNAT1, NAM, and PRPP to allow NAD^+ production. The reaction was then stopped with FK866 before adding ADH and diaphorase to convert the NAD^+ produced to NADH, and absorbance was monitored at regular intervals.
NAMPT activity was measured using the commercial kit, NAMPT Activity Assay, according to the manufacturer’s instructions. […] A mixture of water-soluble tetrazolium salts (WST-1), ADH, diaphorase, and ethanol was added and the absorbance (OD450) measured for 90 min using the microplate reader ClarioSTAR (BMG Labtech).

For `Cc1cc(-n2cccc2)c(C)c2c1[nH]c1ccc(Cl)cc12` [Compound 1], which GI50 (HeLa cells) is on record?
The GI50 was > 25 µM.

And the “activation of NAMPT in vitro” value (NAMPT)?
The value was “enhanced NAMPT activity in a dose-dependent manner”.
